Measurements taken from patent US6531462B2, “Medicament for treating obesity and improving lipid metabolism” (priority 1997, dated 2003).
“Also recorded” adds a separate entry of the source. Marks after values point to notes of the source that are not given here.

Assays:
[1] = Example 1: body weight, body fat and feed intake of mice fed feed supplemented with 0.5% test compound; assay type: in vivo, CDF1 male mice; conditions: ratio relative to the non-treated control group, CDF1 mice
Procedure: (§1) 5-Sitosten-3-one was prepared according to the method of Parish (Parish, E. J., et al., Synthetic Communication, 22, pp.2839-2847, 1992) by using β-sitosterol (Tokyo Chemical Industry Co., Ltd.) as a starting material and used in the experiments. The content ratio of 24-ethyl and 24-methyl compounds in the synthesized product was 6.5:3.5. As experimental animals, six CDF1 male mice (5-week old, Charles River Japan Inc.) were used in each experimental group. The animals were fed in aluminum cages for mice, and allowed to feed and water ad libitum. The animals were fed for 2 weeks under feeding conditions at a temperature of 24±1° C. and a relative humidity of 55±5%, where light and darkness were controlled to change every 12 hours, and each cage and floor mat (white flakes) were exchanged twice a week.
(§2) Modified AIN (Oriental Yeast Co.) was used as basic feed and mixed with 0.5% 5-sitosten-3-one to prepare test feeds. A feed used as a positive control was prepared by adding 0.5% of 4-cholesten-3-one (Japanese Patent Unexamined Publication No. Hei 5-170651/1993) to the basic feed. Non-treated mice as a control were fed solely with the basic feed. The basic feed was composed of 22.8% crude protein, 54.1% carbohydrates, 6.0% lipids, 4.9% fibers, 2.9% ash, and 8.7% water, and its calorie was 1,523 kJ. The feed was stored at 4° C. after preparation, and a fresh feed was supplied every day.
(§3) The animals were weighed at given intervals of time, and the average values and standard errors of the experimental groups were determined. In addition, feed consumptions were measured at given intervals of time and daily averages per mouse were determined. The animals were observed every day. After the end of the feeding, the animals were anesthetized to death with carbon dioxide gas, and bloods were collected from the vena cava to obtain serums. The animals were autopsied, and the brains, lungs, hearts, livers, spleens, kidneys, testis, adrenals and intraperitoneal fat were examined by the naked eye and weighed. As to serum lipid, neutral fats were measured by using a clinical test kit based on the enzyme method (Triglyceride-E Test, Wako Pure Chemicals Industries Co., Ltd.), and total cholesterol and cholestanol were measured by the method of Kasama (T. Kasama, et al., J. Chromatogr., 400, 241, 1987) with modifications, where the amount of benzoyl chloride was increased by 10 times, the reaction time was doubled, and the measurement was performed by using a high performance liquid chromatography system. Significant differences were determined by t-test for body weights and serum lipids on the basis of the non-treated control mice.

[2] = Example 1: serum lipids and serum metabolites of mice fed feed supplemented with 0.5% test compound; assay type: in vivo; conditions: for Serum cholesterol / Serum neutral fats: ratio relative to the non-treated control group
Procedure: as §1, §2, §3

[3] = Example 1: general conditions and autopsical finding; assay type: in vivo, CDF1 male mice; conditions: 0.5% in feed, 2 weeks
Procedure: as §1, §2, §3

[4] = Example 4: body weight and body fat of mice fed 0.5% test compound for 14 days; assay type: in vivo, CDF1 male mice; conditions: 0.5% in feed; for Intraperitoneal fat: mean (n=6) ± standard error; for Decrease of body fat: versus non-treated mice
Procedure: (§4) 5-Campesten-3-one was prepared from campesterol (>97%, Tama Biochemical Industry, Ltd.). 4-Sitosten-3,6-dione was prepared from β-sitosterol (>65%, Tokyo Chemical Industry Co., Ltd.) and obtained as a mixture of 24-ethyl compound and 24-methyl compound (2:1). 5-Stigmasten-3-one was prepared from stigmasterol (>94%, Tokyo Chemical Industry, Co., Ltd.). As experimental animals, six CDF1 male mice (5-week old, Charles River Japan Inc.) were used in each experimental group. Modified AIN (Oriental Yeast Co.) was used as basic feed and mixed with 0.5% of each test compound to prepare test feeds. The animals were allowed to feed with the test food ad libitum for 14 days. Measurements of body weights and observations of general conditions of the animals were carried out twice a week, and the animals were subjected to autopsy and their bloods were collected. Serum lipid analysis was conducted by using a clinical test kit based on the enzymatic method (Wako Pure Chemicals Industries Co., Ltd.). Significances of the resulting values were examined by the one-way analysis of variance with pairwise comparison (ANOVA) according to the Bonferroni method. Other conditions were the same as those described in Example 1.

[5] = Example 4: serum lipid concentration of mice fed 0.5% test compound for 14 days; assay type: in vivo, CDF1 male mice; conditions: 0.5% in feed; for Total cholesterol / Triglyceride: mean (n=6) ± standard error
Procedure: as §4

[6] = Example 2: body weight, feed intake, feed efficiency and intraperitoneal fat of mice fed 0.5% test compound; assay type: in vivo, CDF1 male mice; conditions: 0.5% in feed; for Feed efficiency (body weight gain/feed intake): 14 days; for Intraperitoneal fat: mean (n=6) ± standard error; for Body weight gain: total for 14 days; for Decrease of intraperitoneal fat: versus control
From the text: (§5) As 24-alkylcholesten-3-ones, (1) 4-sitosten-3-one, (2) 6α-hydroxy-4-sitosten-3-one, and (3) 6-hydroxy-4-sitosten-3-one (α:β=2.6:1) were synthesized by using β-sitosterol (Tokyo Chemical Industries Co., Ltd.). The content ratio of 24-ethyl and 24-methyl compounds in the synthesized product was 6.5:3.5. As experimental animals, six CDF1 male mice (5-week old, Charles River Japan Inc.) were used in each experimental group. A purified feed (Modified AIN, Oriental Yeast Co.) was used as a basic feed and mixed with 0.5% test compounds to prepare test feeds. The animals were allowed to feed and water ad libitum. The animals were weighed and observed to examine general conditions twice a week. The animals were subjected to autopsy after the end of the feeding, and their bloods were collected. Lipid concentrations in the separated serums were measured by using a clinical test kit based on the enzyme method (Wako Pure Chemicals Industries Co., Ltd.). Significances of the resulting experimental values were examined by the variance analysis. The other experimental conditions were the same as in Example 1.

[7] = Example 2: serum (plasma) lipid concentrations of mice fed 0.5% test compound; assay type: in vivo, CDF1 male mice; conditions: 0.5% in feed; for Free fatty acid / HDL-cholesterol / Phospholipid / Total cholesterol / Triglyceride: mean (n=6) ± standard error
From the text: as §5

[8] = metabolite of the test compound detected in serum, CDF1 mice
[9] = male, CDF1, mouse, in vivo, 2 weeks

CC(C)CCC[C@@H](C)[C@H]1CC[C@H]2[C@@H]3CCC4=CC(=O)CC[C@]4(C)[C@H]3CC[C@]12C [4-Cholesten-3-one, 4-cholesten-3-one]
Body weight gain [1]: 72^a %
Intraperitoneal fat [1]: 74%
Neutral fats (serum), mean ± standard error ([2]; 0.5% in feed, 2 weeks, n=6): 197.7 ± 28.1 mg/dL
Total cholesterol (serum), mean ± standard error ([2]; 0.5% in feed, 2 weeks, n=6): 99.2 ± 5.8 mg/dL
Serum metabolite [2, 8]: Cholestanol
Serum metabolite ([2]; metabolite of the test compound detected in serum, CDF1 mice, listed as 4-cholesten-3-one): cholestanol
Serum cholesterol ([2]; CDF1 mice): 62%
Serum neutral fats ([2]; CDF1 mice): 54%
Spleens at autopsy [3]: enlargements

CC[C@H](CC[C@@H](C)[C@H]1CC[C@H]2[C@@H]3CC(=O)C4=CC(=O)CC[C@]4(C)[C@H]3CC[C@]12C)C(C)C [4-Sitosten-3,6-dione]
Effect on the increase of body weight (FIG. 6) [4]: Significant inhibitory effects
Intraperitoneal fat [4]: 472.7 ± 37.7 mg
Decrease of body fat [4]: ~40%
Decrease of serum total cholesterol concentration [5]: ~18%
Decrease of serum triglyceride concentration [5]: ~66%
Total cholesterol [5]: 156.3 ± 6.4 mg/dL
Triglyceride [5]: 85.8 ± 9.2 mg/dL

CC(C)CCC[C@@H](C)[C@H]1CC[C@H]2[C@@H]3CC[C@@H]4CC(=O)CC[C@]4(C)[C@H]3CC[C@]12C [5 β-Cholestan-3-one, 5β-cholestan-3-one]
Body weight gain [1]: 51%
Intraperitoneal fat [1]: 71%
Serum metabolite [2, 8]: Cholestanol
Serum metabolite ([2]; metabolite of the test compound detected in serum, CDF1 mice, listed as 5β-cholestan-3-one): cholestanol or coprostanol
Serum cholesterol ([2]; CDF1 mice): 75%
Serum neutral fats ([2]; CDF1 mice): 70%

CC[C@H](CC[C@@H](C)[C@H]1CC[C@H]2[C@@H]3CC=C4CC(=O)CC[C@]4(C)[C@H]3CC[C@]12C)C(C)C [5-Stigmasten-3-one]
Intraperitoneal fat [4]: 745.7 ± 46.7 mg
Decrease of serum total cholesterol concentration [5]: ~49%
Decrease of serum triglyceride concentration [5]: ~68%
Total cholesterol [5]: 97.9 ± 3.4 mg/dL
Triglyceride [5]: 82.0 ± 6.7 mg/dL

CC[C@H](CC[C@@H](C)[C@H]1CC[C@H]2[C@@H]3C[C@H](O)C4=CC(=O)CC[C@]4(C)[C@H]3CC[C@]12C)C(C)C [6α-Hydroxy-4-sitosten-3-one, 6α-hydroxy-4-sitosten-3-one]
Feed efficiency (change) [6]: remarkable decrease
Suppression of body weight (FIG. 3) [6]: potent suppressing effects
Feed efficiency (body weight gain/feed intake) [6]: 0.022
Intraperitoneal fat [6]: 369.8 ± 22.5 mg
Body weight gain [6]: 0.86 g/mouse
Decrease of intraperitoneal fat [6]: 60%
Total cholesterol and phospholipid concentrations in plasma [7]: significantly decreased
Free fatty acid [7]: 0.69 ± 0.04 mEq/dl
HDL-cholesterol [7]: 36.7 ± 4.7 mg/dL
Phospholipid [7]: 209.6 ± 7.8 mg/dL
Total cholesterol [7]: 142.5 ± 5.1 mg/dL
Triglyceride [7]: 66.8 ± 3.5 mg/dL

CC[C@H](CC[C@@H](C)[C@H]1CC[C@H]2[C@@H]3CCC4=CC(=O)CC[C@]4(C)[C@H]3CC[C@]12C)C(C)C [4-Sitosten-3-one, 4-sitosten-3-one]
Feed efficiency (change) [6]: only slight changes
Suppression of body weight (FIG. 3) [6]: no significant suppression
Feed efficiency (body weight gain/feed intake) [6]: 0.087
Intraperitoneal fat [6]: 841.5 ± 69.0 mg
Body weight gain [6]: 3.71 g/mouse
Decrease of intraperitoneal fat [6]: not signilficant
Free fatty acid [7]: 0.92 ± 0.03 mEq/dl
HDL-cholesterol [7]: 42.4 ± 6.36 mg/dL
Phospholipid [7]: 271.0 ± 9.5 mg/dL
Total cholesterol [7]: 151.4 ± 5.7 mg/dL
Triglyceride [7]: 130.9 ± 4.9 mg/dL

CC(C)CCC[C@@H](C)[C@H]1CC[C@H]2[C@@H]3C=CC4=CC(=O)CC[C@]4(C)[C@H]3CC[C@]12C [Colesta-4,6-dien-3-one]
Body weight gain [1]: 59%
Intraperitoneal fat [1]: 69%
Serum cholesterol ([2]; CDF1 mice): 63%
Serum neutral fats ([2]; CDF1 mice): 60%

CC[C@H](CC[C@@H](C)[C@H]1CC[C@H]2[C@@H]3CC(O)C4=CC(=O)CC[C@]4(C)[C@H]3CC[C@]12C)C(C)C (stereo partly drawn) [6-Hydroxy-4-sitosten-3-one (α:β = 2.6:1), 6-hydroxy-4-sitosten-3-one (α:β=2.6:1)]
Feed efficiency (change) [6]: remarkable decrease
Suppression of body weight (FIG. 3) [6]: potent suppressing effects
Feed efficiency (body weight gain/feed intake) [6]: 0.044
Intraperitoneal fat [6]: 481.8 ± 51.9 mg
Body weight gain [6]: 1.82 g/mouse
Decrease of intraperitoneal fat [6]: 50%
Total cholesterol and phospholipid concentrations in plasma [7]: significantly decreased
Free fatty acid [7]: 0.77 ± 0.03 mEq/dl
HDL-cholesterol [7]: 45.0 ± 5.8 mg/dL
Phospholipid [7]: 211.9 ± 5.1 mg/dL
Total cholesterol [7]: 133.3 ± 5.7 mg/dL
Triglyceride [7]: 76.5 ± 5.2 mg/dL

CC(C)CCC[C@@H](C)[C@H]1CC[C@H]2[C@@H]3CC(=O)C4=CC(=O)CC[C@]4(C)[C@H]3CC[C@]12C [4-Cholestene-3,6-dione]
Body weight gain [1]: −62%
Intraperitoneal fat [1]: 23%
Serum metabolite [2, 9]: 0
Serum cholesterol ([2]; CDF1 mice): 60%
Serum neutral fats ([2]; CDF1 mice): 36%

CC(C)CCC[C@@H](C)[C@H]1CC[C@H]2[C@@H]3CC=C4CC(=O)CC[C@]4(C)[C@H]3CC[C@]12C [5-Cholesten-3-one]
Body weight gain [1]: −16%
Intraperitoneal fat [1]: 37%
Serum metabolite [2, 9]: 0
Serum cholesterol ([2]; CDF1 mice): 68%
Serum neutral fats ([2]; CDF1 mice): 30%

CC(C)CCC[C@@H](C)[C@H]1CC[C@H]2[C@@H]3CC(O)C4=CC(=O)CC[C@]4(C)[C@H]3CC[C@]12C (some centres unmarked) [6-Hydroxy-4-cholesten-3-one]
Body weight gain [1]: 50%
Intraperitoneal fat [1]: 63%
Serum metabolite [2, 9]: 0
Serum cholesterol ([2]; CDF1 mice): 80%
Serum neutral fats ([2]; CDF1 mice): 47%

CC(C)CCC[C@@H](C)[C@H]1CC[C@H]2[C@@H]3C[C@@H](Br)C4=CC(=O)CC[C@]4(C)[C@H]3CC[C@]12C [6 β-Bromo-4-cholesten-3-one, 6β-bromo-4-cholesten-3-one]
Body weight gain [1]: 48%
Intraperitoneal fat [1]: 62%
Serum cholesterol ([2]; CDF1 mice): 98%
Serum neutral fats ([2]; CDF1 mice): 89%

CC(C)[C@H](C)CC[C@@H](C)[C@H]1CC[C@H]2[C@@H]3CC=C4CC(=O)CC[C@]4(C)[C@H]3CC[C@]12C [5-Campesten-3-one, 5-campesten-3-one (24-methylcholest-5-en-3-one)]
Effect on the increase of body weight (FIG. 6) [4]: Significant inhibitory effects; also recorded: remarkably suppressed
Intraperitoneal fat [4]: 86.4 ± 19.9 mg
Decrease of body fat [4]: about 90%
Decrease of serum total cholesterol concentration [5]: about 34%
Decrease of serum triglyceride concentration [5]: about 45%
Total cholesterol [5]: 125.8 ± 4.0 mg/dL
Triglyceride [5]: 138.9 ± 18.7 mg/dL
